Reference: patent publication US7253177B2, “Synthesis and antimalarial activity of pyrrolo[3,2-f]quinazoline-1,3-diamine derivatives” (United States of America as Represented by the Secretary of …, priority 2004, dated 2007)
In brackets after ≈: the same amount, converted by molar mass. Read-outs that look alike come from different tables or passages of the source.

Assays:
[1] = tested on: Plasmodium falciparum D-6 clone (CDC Sierra Leone I); assay: In vitro antimalarial study, [3H]hypoxanthine uptake, D-6 clone; format: cell-based; details: for IC50 D-6: P. falciparum D-6 clone; for IC50: Plasmodium falciparum, read-out: IC50 D-6
Experimental: (§1) B. Antimalarial Activities: (a). In Vitro Antimalarial Studies. The in vitro assays were conducted by using a modification of the semiautomated microdilution technique of Desjardins et al and Chulay et al.. Four P. falciparum malaria parasite clones, from CDC Indochina III (W-2), CDC Sierra Leone I (D-6), Southeast Asia Isolates (TM91C235) and RCS (Isolates from Brazil) were utilized in susceptibility testing. They were derived by direct visualization and micromanipulation from patient isolates. The W-2 clone is susceptible to mefloquine but resistant to chloroquine, sulfadoxine, pyrimethamine, and quinine, whereas the D-6 clone is naturally resistant to mefloquine but susceptible to chloroquine, sulfadoxine, pyrimethamine and quinine. Test compounds were initially dissolved in DMSO and diluted 400 fold in RPMI 1640 culture medium supplemented with 25 mM Hepes, 32 mM NaHCO3 and 10% Albumax I (Gibco BRL, Grand Island, N.Y.). These solutions were subsequently serially diluted two-fold with a Biomek 1000 (Beckman, Fullerton, Calif.) over 11 different concentrations. The parasites were exposed to serial dilutions of each compound for 48 hrs and incubated at 37° C. with 5% O2, 5% CO2 and 90% N2 prior to the addition of [^3H]hypoxanthine. After a further incubation of 18 hrs, parasite DNA was harvested from each microtiter well using Packard Filtermate 196 Harvester (Meriden, Conn.) onto glass filters. Uptake of [^3H]hypoxanthine was measured with a Packard Topcount Scintillation. Concentration-response data were analyzed by a non-linear regression logistic dose response model and the IC50 values (50% inhibitory concentrations) for each compound were calculated. (Table 3). (b). In Vivo Antimalarial Studies against P. berghei in mice: The in vivo efficacy of the artelinic acid analogs were determined in a modified Thompson test. This test measures the survivability of mice and parasitemia clearance following administration of drug on days 3-5 post infection. In brief, 5×10^6 P. berghei-infected erythrocytes (KBG-173 strain) were inoculated intraperitoneally to female mice that weighed 24-30 g. By day three post-infection, parasitemia ranged from 1.0-3.7%. Each drug, dissolved in 5% sodium bicarbonate, was administered PO twice daily from day 3-5 post-infection. Total doses for each drug ranged from 1.5-384 mg/kg with 8 mice included in each dosage group. The percent suppression of parasitemia in the treated mice compared to the untreated controls was determined for each test compound; the SD-50 (fifty percent suppression dose) and SD-90 were determined from a non-linear regression logistic dose response fit at day 6 parasitemia data. Survival of mice to day 60 post-infection was considered a cure (C). Compounds were considered active (A) when the survival time of the treated mice was greater than twice the control mice, i.e., 12-14 day (Table 4-5). (c). Sporozoite Induced Test Each compound is ground with a mortar & pestle and suspended in 0.5% hydroxyethylcellulose—0.1% Tween 80 for compounds to be administered PO and those given SC are suspended in peanut oil. Each compound is prepared at 3 different dose levels as requested by WRAIR. Compounds are administered either PO or SC to mice once 4 hr before inoculation of sporozoites. Four-week-old male CD-1 mice, purchased from Charles River and weighing 16-17 g, are placed 5 per cage and allowed to acclimate for 4 days before being treated and then inoculated with sporozoites. They are fed food and water ad-lib and maintained at 76° F. with 12 hr light and 12 hr darkness. The cages and water bottles are changed biweekly. The mice are weighed on Days 0, 3 and 6 then biweekly when blood films are taken. Plasmodium yoelii (17×) is used to infect mice that will be used to infect the mosquitoes. Mice are given a single dose of test compound 4 hr before being inoculated intraperitoneally with 2.5×10^5 sporozoites of Plasmodium yoelii on Day 0. […]

[2] = tested on: Plasmodium falciparum RCS (Isolates from Brazil); assay: In vitro antimalarial study, [3H]hypoxanthine uptake, RCS clone; format: cell-based; details: P. falciparum RCS clone; for IC50: Plasmodium falciparum
Experimental: as §1

[3] = tested on: Plasmodium berghei (KBG-173 strain); format: in vivo; details: mice, oral
Experimental: as §1

[4] = tested on: Plasmodium falciparum W-2 clone (CDC Indochina III); assay: In vitro antimalarial study, [3H]hypoxanthine uptake, W-2 clone; format: cell-based; details: for IC50 W-2: P. falciparum W-2 clone; for IC50: Plasmodium falciparum, read-out: IC50 W-2
Experimental: as §1

[5] = tested on: Plasmodium falciparum TM91C235 (Southeast Asia Isolates); assay: In vitro antimalarial study, [3H]hypoxanthine uptake, TM91C235 clone; format: cell-based; details: for IC50 TM91C235: P. falciparum TM91C235 clone; for IC50: Plasmodium falciparum, read-out: IC50 TM91C235
Experimental: as §1

[6] = tested on: Plasmodium berghei; assay: Antimalarial activity against Plasmodium berghei in mice by subcutaneous injection; format: in vivo
[7] = tested on: Plasmodium yoelii (17x) sporozoites; assay: Sporozoite induced test in mice; format: in vivo; details: P. yoelii, mice, oral
Experimental: as §1, with “mosquitoes. […] Whole body weights” for “mosquitoes. Mice”, “are taken” for “are given a single dose of test compound 4 hr before being inoculated intraperitoneally with 2.5×10^5 sporozoites of Plasmodium yoelii”, “Day 0 and Day 6 then twice a week for 31 days. A blood film is taken on Day 5 and then twice a week for 31 days. Mice loosing >20% of their body weight will be sacrificed.” for “Day 0.”

**Q.** For `CCOC(=O)Nc1nc(N(C(=O)OCC)C(=O)OCC)c2c(ccc3c2ccn3Cc2ccccc2C(F)(F)F)n1` [Compound 2c], which “IC50 D-6” value [1] is on record?
**A.** The value was greater than 250 ng/mL.

**Q.** And the “IC50 RCS” value [2]?
**A.** Its value is greater than 250 ng/mL.

**Q.** And the “# Mice Alive Day 30/Total” value ([3]; 80-1.25 mg/kg/day)?
**A.** Its value is 5/5.

**Q.** What about the “# Mice Dead/Day Died” value ([3]; 80-1.25 mg/kg/day) of the same compound?
**A.** Its value is “None”.

**Q.** What about the “IC50 W-2” value [4] of the same compound?
**A.** The value was greater than 250 ng/mL.

**Q.** What about the “IC50 TM91C235” value [5] of the same compound?
**A.** The value was greater than 250 ng/mL.

**Q.** With `CC(C)(C)OC(=O)Nc1nc(N(C(=O)OC(C)(C)C)C(=O)OC(C)(C)C)c2c(ccc3c2ccn3Cc2ccccc2C(F)(F)F)n1` [Compound 2i] as the compound, how does the “IC50 D-6” value [1] read?
**A.** The value was 1.9252 ng/mL (≈ 2.93 nM).

**Q.** What about the “# Mice Alive Day 31/Total” value ([6]; 40-2.5 mg/kg/day) of the same compound?
**A.** Its value is 7/7.

**Q.** And the “# Mice Dead/Day Died” value ([6]; 40-2.5 mg/kg/day)?
**A.** The value was “none”.

**Q.** What about the “IC50 RCS” value [2] of the same compound?
**A.** The value was 26.380 ng/mL (≈ 40.1 nM).

**Q.** And the “IC50 W-2” value [4]?
**A.** The value was 33.569 ng/mL (≈ 51 nM).

**Q.** What about the “IC50 TM91C235” value [5] of the same compound?
**A.** The value was 97.708 ng/mL (≈ 149 nM).

**Q.** For `CC(C)(C)OC(=O)N(C(=O)OC(C)(C)C)c1nc(N(C(=O)OC(C)(C)C)C(=O)OC(C)(C)C)c2c(ccc3c2ccn3Cc2ccccc2C(F)(F)F)n1` [Compound 2j], which “# Mice Alive Day 31/Total” value ([6]; 2.5 mg/kg/day) is on record?
**A.** The value was 2/7.

**Q.** What about the “# Mice Alive Day 31/Total” value ([6]; 10 mg/kg/day) of the same compound?
**A.** The value was 6/7.

**Q.** And the “# Mice Dead/Day Died” value ([6]; 10 mg/kg/day)?
**A.** Its value is 1/24.

**Q.** What about the “# Mice Alive Day 31/Total” value ([6]; 20 mg/kg/day) of the same compound?
**A.** Its value is 7/7.

**Q.** And the “# Mice Dead/Day Died” value ([6]; 20 mg/kg/day)?
**A.** Its value is “none”.

**Q.** What about the “# Mice Alive Day 31/Total” value ([6]; 40 mg/kg/day) of the same compound?
**A.** The value was 5/7.

**Q.** What about the “# Mice Dead/Day Died” value ([6]; 40 mg/kg/day) of the same compound?
**A.** The value was 2/19.

**Q.** Which results are given for `CC(=O)Nc1nc(N)nc2ccc3c(ccn3Cc3ccccc3C(F)(F)F)c12` [Compound 3a]?
**A.** IC50 [1]: 0.0097 ng/mL (≈ 0.0243 nM); IC50 [2]: 0.0096 ng/mL (≈ 0.024 nM); IC50 [4]: 0.0186 ng/mL (≈ 0.0466 nM); IC50 [5]: 0.0206 ng/mL (≈ 0.0516 nM)

**Q.** What does the source list for `CC(=O)N(C(C)=O)c1nc(N)nc2ccc3c(ccn3Cc3ccccc3C(F)(F)F)c12` [Compound 3b]?
**A.** IC50 [1]: 0.0101 ng/mL (≈ 0.0229 nM); IC50 [2]: 0.0116 ng/mL (≈ 0.0263 nM); IC50 [4]: 0.0183 ng/mL (≈ 0.0415 nM); IC50 [5]: 0.0212 ng/mL (≈ 0.048 nM)

**Q.** What does the source list for `CC(=O)Nc1nc(N(C(C)=O)C(C)=O)c2c(ccc3c2ccn3Cc2ccccc2C(F)(F)F)n1` [Compound 3d]?
**A.** # Mice Dead/Day Died ([3]; 10-0.625 mg/kg/day): death in each group; # Mice Alive Day 30/Total ([3]; 220-40 mg/kg/day): 5/5; # Mice Dead/Day Died ([3]; 220-40 mg/kg/day): None

**Q.** Which results are given for `Nc1nc(N2C(=O)CCC2=O)nc2ccc3c(ccn3Cc3ccccc3C(F)(F)F)c12` [Compound 3f, 1-Amino-3-(1-pyrrolidine-2,5-dione)-7-(2-trifluoromethyl-benzyl)-7H-pyrrolo[3,2-f]quinazoline]?
**A.** IC50 [1]: < 0.488 ng/mL; IC50 [4]: < 0.488 ng/mL

**Q.** `O=C1CCC(=O)N1c1nc(N2C(=O)CCC2=O)c2c(ccc3c2ccn3Cc2ccccc2C(F)(F)F)n1` [Compound 3g, 1,3-Bis-(1-pyrrolidine-2,5-dione)-7-(2-trifluoromethyl)benzyl-7H-pyrrolo[3,2-f]quinazoline] was tested. Which “IC50 D-6” value [1] did it give?
**A.** The value was 0.1284 ng/mL (≈ 0.246 nM).

**Q.** And the “IC50 RCS” value [2]?
**A.** The value was 0.2571 ng/mL (≈ 0.493 nM).

**Q.** What about the “# Mice Alive Day 30/Total” value ([3]; 80 mg/kg/day) of the same compound?
**A.** Its value is 2/5.

**Q.** What about the “# Mice Alive Day 30/Total” value ([3]; 40-10 mg/kg/day) of the same compound?
**A.** Its value is 0/5.

**Q.** What about the “# Mice Dead/Day Died” value ([3]; 40-10 mg/kg/day) of the same compound?
**A.** The value was “deaths in each group”.

**Q.** What about the “IC50 W-2” value [4] of the same compound?
**A.** Its value is 0.1284 ng/mL (≈ 0.246 nM).

**Q.** And the “IC50 TM91C235” value [5]?
**A.** The value was 0.4021 ng/mL (≈ 0.771 nM).

**Q.** Which results are given for `Nc1nc(O)c2c(ccc3c2ccn3Cc2ccccc2C(F)(F)F)n1` [Compound 4, 1-hydroxy-3-amino-7-(2-trifluromethyl)benzyl-7H-pyrrolo [3,2-f]quinazoline]?
**A.** IC50 [1]: 7.24 ng/mL (≈ 20.2 nM); oral dose range giving 100% cure against P. berghei ([3]; Thompson test): 80 to 180 mg/kg; # Mice Alive Day 30/Total ([3]; 320 mg/kg/day): 1/5; # Mice Dead/Day Died ([3]; 40-10 mg/kg/day): deaths in each group; # Mice Alive Day 30/Total ([3]; 160-80 mg/kg/day): 5/5; # Mice Dead/Day Died ([3]; 160-80 mg/kg/day): none; IC50 [4]: 53.9 ng/mL (≈ 150 nM); IC50 [5]: 83.4 ng/mL (≈ 233 nM)

**Q.** How did the “Number of Mice Cured” value ([7]; 1.25 mg/kg) turn out when `COc1cc(C)c2c(Oc3cccc(C(F)(F)F)c3)c(OC)cc(NC(C)CCCN)c2n1` (stereo not drawn) [Tefenoquine, reference compound] was run?
**A.** Its value is 2/5.

**Q.** What about the “Number of Mice Cured” value ([7]; 2.5 mg/kg) of the same compound?
**A.** Its value is 4/5.

**Q.** And the “Number of Mice Cured” value ([7]; 5 mg/kg)?
**A.** Its value is 5/5.

**Q.** What about the “Number of Mice Cured” value ([7]; 10 mg/kg) of the same compound?
**A.** The value was 5/5.
